Data from ChEMBL document CHEMBL1201862, “PubChem BioAssay data set” (2004).
Calls of active or inactive are those of the source.

Legend:
[1] = growth suppression of PTEN-null colon cells, dose response, cell-based, HCT116 PTEN knockout (AID 1047); format: functional;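 note: HCT116 colon tumor cells with PTEN knocked out; cells exposed to compound for 60 hours before readout; potency for loss of cell viability measured by luminescence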
Beta Lactamase = Beta Lactamase (Pseudomonas aeruginosa, UniProt Q932Y6); assay: beta-lactamase reporter inhibitor potency, dose response, artefact control for TLR9-MyD88 binding inhibitor project, BLA reporter cells, FRET fluorescence (AID 588341); format: cell-based;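 note: cell based assay in CHO-K1 cells stably expressing beta-lactamase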
Beta Lactamase, sequence (Q932Y6 whole entry): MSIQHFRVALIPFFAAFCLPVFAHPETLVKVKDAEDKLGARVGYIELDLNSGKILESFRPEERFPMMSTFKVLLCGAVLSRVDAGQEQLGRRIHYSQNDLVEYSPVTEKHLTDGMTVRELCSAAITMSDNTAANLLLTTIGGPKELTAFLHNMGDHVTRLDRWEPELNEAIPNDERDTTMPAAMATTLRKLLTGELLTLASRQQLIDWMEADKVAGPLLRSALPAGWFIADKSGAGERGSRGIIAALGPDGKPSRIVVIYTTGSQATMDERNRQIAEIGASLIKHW

[2] = growth suppression of beta-catenin-knockout colon cells, dose response, cell-based, HCT116, human colon tumor (AID 1045); format: functional;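 note: HCT116 colon tumor cells with beta catenin knocked out; cells exposed to compound for 60 hours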
[3] = HEp-2 cell cytotoxicity, dose response, cytotoxicity control for RSV inhibitor project, HTS (AID 2410); format: functional; conditions: human respiratory syncytial virus
CHO = assay: cytotoxicity in TLR9-MyD88 CHO cells, dose response, cytotoxicity control for TLR9-MyD88 binding inhibitor project, cell-based, luminescence (AID 588339); format: functional, hamster; conditions: Cricetulus griseus;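 note: CHO cells stably coexpressing TLR9 and MyD88 fusions from primary screen; compound exposure lasted 48 hours before viability readout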
Genome polyprotein = Genome polyprotein (dengue virus type 2, UniProt P29990); assay: Dengue-2 NS5 methyltransferase inhibitors, primary screen, biochemical, confirmation dose response (AID 588689); format: functional
Genome polyprotein, sequence (P29990 2492-3391 limits assumed): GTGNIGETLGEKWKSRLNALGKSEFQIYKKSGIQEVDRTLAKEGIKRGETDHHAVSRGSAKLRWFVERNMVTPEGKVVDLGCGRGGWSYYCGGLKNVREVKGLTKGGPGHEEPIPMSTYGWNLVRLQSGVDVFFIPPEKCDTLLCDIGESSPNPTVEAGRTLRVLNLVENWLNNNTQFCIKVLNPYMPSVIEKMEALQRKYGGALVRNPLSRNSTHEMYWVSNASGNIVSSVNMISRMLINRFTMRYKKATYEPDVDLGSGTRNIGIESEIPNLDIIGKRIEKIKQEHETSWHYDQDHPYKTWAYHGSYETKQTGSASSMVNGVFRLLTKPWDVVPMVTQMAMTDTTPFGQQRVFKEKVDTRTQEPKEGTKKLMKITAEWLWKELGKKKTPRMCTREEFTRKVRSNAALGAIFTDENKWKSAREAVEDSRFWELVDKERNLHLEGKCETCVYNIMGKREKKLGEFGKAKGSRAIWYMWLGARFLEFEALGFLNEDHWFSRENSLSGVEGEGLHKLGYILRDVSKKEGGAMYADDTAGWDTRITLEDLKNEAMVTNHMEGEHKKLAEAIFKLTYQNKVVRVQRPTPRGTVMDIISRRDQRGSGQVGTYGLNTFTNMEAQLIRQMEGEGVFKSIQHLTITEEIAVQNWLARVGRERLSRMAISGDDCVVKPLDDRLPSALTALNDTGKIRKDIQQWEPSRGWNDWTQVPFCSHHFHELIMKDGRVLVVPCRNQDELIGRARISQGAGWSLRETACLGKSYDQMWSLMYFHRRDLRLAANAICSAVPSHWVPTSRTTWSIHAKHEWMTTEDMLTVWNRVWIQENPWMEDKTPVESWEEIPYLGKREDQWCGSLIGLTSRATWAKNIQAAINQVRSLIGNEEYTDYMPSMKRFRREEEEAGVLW

Vero = Vero cell cytotoxicity, cytotoxicity control for flavivirus capping enzyme inhibitors (AID 588742); format: functional; conditions: Chlorocebus sabaeus
[4] = molecular target: Induced myeloid leukemia cell differentiation protein Mcl-1 (Homo sapiens, UniProt Q07820); format: functional
Induced myeloid leukemia cell differentiation protein Mcl-1, sequence (Q07820 whole entry): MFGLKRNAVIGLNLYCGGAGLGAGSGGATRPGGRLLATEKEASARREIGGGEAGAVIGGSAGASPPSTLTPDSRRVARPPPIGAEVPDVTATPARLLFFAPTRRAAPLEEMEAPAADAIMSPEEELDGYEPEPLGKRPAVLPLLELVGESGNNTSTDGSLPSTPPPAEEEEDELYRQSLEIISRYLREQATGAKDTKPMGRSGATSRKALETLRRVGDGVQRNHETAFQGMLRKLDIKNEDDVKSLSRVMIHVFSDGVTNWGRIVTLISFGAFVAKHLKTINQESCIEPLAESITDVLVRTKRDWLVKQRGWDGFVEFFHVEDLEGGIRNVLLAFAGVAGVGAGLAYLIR

IC50 (Genome polyprotein)	IC50 [4]	Compound	EC50 [1]	IC50 (Beta Lactamase)	EC50 [2]	CC50 [3]	IC50 (CHO)	CC50 (Vero)
		COc1ccccc1NS(=O)(=O)c1cc([N+](=O)[O-])ccc1N/N=C/c1c[nH]c2ccccc12	21.9 µM (active)	2.74 µM (active)	21.8 µM (active)	41.7 µM (active)	32 µM (inactive)	
> 100 µM (active)	2.28 µM (active)	COc1ccccc1NC1=C(NC(C)=O)C(=O)c2ccccc2C1=O						> 40 µM (active)
